± gives the expanded uncertainty stated by the source.
Tests used:
[1] = 101 kPa, Liquid; for speed of sound: Frequency=2 MHz, Linear variable-path acoustic interferometer; for mass density: Pycnometric method
[2] = xn = mol fraction of the nth substance listed; conditions: 101 kPa, Liquid; for speed of sound: Frequency=2 MHz, Linear variable-path acoustic interferometer; for mass density: Pycnometric method

CCCO [propan-1-ol]
[1]
Conditions	mass density [kg/m3]	speed of sound [m/s]
293.15 K	803.76 ± 4	1227 ± 1.7
303.15 K	795.82 ± 4	1192.5 ± 1.7
313.15 K	787.88 ± 4	1157.7 ± 1.7

CCCCO [butan-1-ol] + CCN(CC)CCO
[2], x2 = 0
Conditions	mass density [kg/m3]	speed of sound [m/s]
293.15 K	809.53 ± 4	1261.9 ± 1.8
303.15 K	802 ± 4	1224.7 ± 1.7
313.15 K	794.7 ± 4	1188.8 ± 1.7

CCCO [propan-1-ol] + CCN(CC)CCO
[2], x2 = 0
Conditions	mass density [kg/m3]	speed of sound [m/s]
293.15 K	803.76 ± 4	1227 ± 1.7
303.15 K	795.82 ± 4	1192.5 ± 1.7
313.15 K	787.88 ± 4	1157.7 ± 1.7

CCN(CC)CCO [(diethylamino)ethanol] + CCCCO
[2]
Conditions	mass density, 293.15 K [kg/m3]	mass density, 303.15 K [kg/m3]	mass density, 313.15 K [kg/m3]	speed of sound, 293.15 K [m/s]	speed of sound, 303.15 K [m/s]	speed of sound, 313.15 K [m/s]
x1 = 0.0902	820.03 ± 4	812.47 ± 4	805.16 ± 4	1276.3 ± 1.8	1239.8 ± 1.8	1204.1 ± 1.7
x1 = 0.1941	831.16 ± 4	823.43 ± 4	815.92 ± 4	1291.2 ± 1.8	1254.8 ± 1.8	1218.7 ± 1.7
x1 = 0.2938	840.82 ± 4	832.89 ± 4	825.11 ± 4	1304.3 ± 1.8	1267.7 ± 1.8	1231 ± 1.7
x1 = 0.4045	850.42 ± 4	842.23 ± 4	834.18 ± 4	1317.8 ± 1.8	1281 ± 1.8	1243.5 ± 1.8
x1 = 0.5081	858.32 ± 4	849.91 ± 4	841.63 ± 4	1329.2 ± 1.8	1292.2 ± 1.8	1254 ± 1.8
x1 = 0.6088	865.03 ± 4	856.45 ± 4	847.98 ± 4	1339.3 ± 1.9	1302.1 ± 1.8	1263.3 ± 1.8
x1 = 0.7129	871.14 ± 4	862.42 ± 4	853.78 ± 4	1348.6 ± 1.9	1311.2 ± 1.8	1271.9 ± 1.8
x1 = 0.8131	876.29 ± 4	867.39 ± 4	858.66 ± 4	1356.4 ± 1.9	1318.7 ± 1.8	1278.8 ± 1.8
x1 = 0.9037	880.46 ± 4	871.28 ± 4	862.4 ± 4	1362.2 ± 1.9	1324 ± 1.8	1283.2 ± 1.8
x1 = 1	884.37 ± 4	874.93 ± 4	865.62 ± 4	1366.5 ± 1.9	1327.3 ± 1.8	1285 ± 1.8

Source: the NIST ThermoML archive (doi:10.1016/j.jct.2018.06.007)
